In general, IC50 refers to the concentration needed to halve the response being measured.

Data on seven molecules can be found in US8466284B2, “Some 2-pyrazinone derivatives and their use as inhibitors of neutrophile elastase” (Astra Zeneca AB, priority 2007, dated 2013).

Data set [1] in a line: Thermal behaviour of the solid (DSC / TGA). The format is physicochemical. To be noted: solid state. Here is the method:
Using standard methods, for example those described in Höhne, G. W. H. et al (1996), Differential Scanning Calorimetry, Springer, Berlin, the calorimetric response of a test sample to increasing temperature was investigated using a TA Instruments Q2000 Modulated Temperature Differential Scanning Calorimeter (MTDSC). Measurements were performed between 15 and 300° C. using a modulation of ±0.50° C. in intervals of 40 seconds and a ramp rate of 5° C. per minute. Approximately 1 to 5 mg of test sample was placed in aluminium cups with lids (no crimping) under a nitrogen atmosphere.
Gravimetric Analysis (TGA)
The gravimetric response of test samples to increasing temperatures was investigated using a Q500 Thermal Gravimetric Analyser (TGA) (TA Instruments). The samples were heated in a flow of nitrogen gas with a heating rate of 10° C./min.
Approximately 1 to 3 mg of the test sample was placed in the cup and heated to approximately 300° C.

A short description of data set [2]: Humidity interaction (Gravimetrical Vapour Sorption). It counts as physicochemical. Conditions: 0 to 80% relative humidity (RH) at 25° C. Here is the method: is The gravimetric responses of test samples to changes in humidity were investigated using a TGA 5000 (TA Instruments) Gravimetrical Vapour Sorption (GVS). The relative humidity (RH) was raised in steps of 5% to 90% RH and lowered back to 0% RH in two cycles. Each level of RH was held until the equilibrium condition (sample weight change<0.01 wt % per 10 minutes) was reached. Measurements were normally made at 25° C. Approximately 5 mg of the test sample was placed in the cup and evaluated. The hygroscopicity was calculated as the relative change in weight of the sample between the two conditions 0% RH and 80% RH during the second cycle.

For data set [3], the target named is T1, Human Neutrophil Elastase (HNE) (Homo sapiens, UniProt P08246).
T1 construct: Human Neutrophil Elastase (HNE) purified from serum; purchased Calbiochem 324681; host or cells: purified from serum (natural human source, not recombinant)
T1 sequence (P08246 30-247 limits assumed): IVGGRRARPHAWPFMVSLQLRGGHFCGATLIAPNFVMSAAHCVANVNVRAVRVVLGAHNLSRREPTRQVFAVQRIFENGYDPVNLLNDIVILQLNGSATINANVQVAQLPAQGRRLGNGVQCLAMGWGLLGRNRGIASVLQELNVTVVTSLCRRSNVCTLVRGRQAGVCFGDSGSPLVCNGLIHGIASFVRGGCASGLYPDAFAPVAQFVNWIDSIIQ
In words: Human Neutrophil Elastase Quenched-FRET Assay. It counts as biochemical. To be noted: 1.7 nM HNE, 100 μM MeOSuc-AAPV-AMC, 15 min pre-incubation, 30 min at room temperature; read-out: Inhibition of Human Neutrophil Elastase IC50. Here is the method: Human Neutrophil Elastase Quenched-FRET Assay
The assay uses Human Neutrophil Elastase (HNE) purified from serum (Calbiochem art. 324681; Ref. Baugh, R. J. et al., 1976, Biochemistry. 15, 836-841). HNE was stored in 50 mM sodium acetate (NaOAc), 200 mM sodium chloride (NaCl), pH 5.5 with added 30% glycerol at −20° C. The protease substrate used was Elastase Substrate V Fluorogenic, MeOSuc-AAPV-AMC (Calbiochem art. 324740; Ref. Castillo, M. J. et al., 1979, Anal. Biochem. 99, 53-64). The substrate was stored in dimethyl sulphoxide (DMSO) at −20° C. The assay additions were as follows: Test compounds and controls were added to black 96-well flat-bottom plates (Greiner 655076), 1 μL in 100% DMSO, followed by 30 μL HNE in assay buffer with 0.01% Triton (trade mark) X-100 detergent. The assay buffer constitution was: 100 mM Tris(hydroxymethyl)aminomethane (TRIS) (pH 7.5) and 500 mM NaCl. The enzyme and the compounds were incubated at room temperature for 15 minutes. Then 30 μl substrate in assay buffer was added. The assay was incubated for 30 minutes at room temperature. The concentrations of HNE enzyme and substrate during the incubation were 1.7 nM and 100 μM, respectively. The assay was then stopped by adding […] stop solution (140 mM acetic acid, 200 mM sodium monochloroacetate, 60 mM sodium acetate, pH 4.3). Fluorescence was measured on a Wallac 1420 Victor 2 instrument at settings: Excitation 380 nm, Emission 460 nm. IC50 values were determined using Xlfit curve fitting using model 205.

In the case of `Cc1c(-c2ccnn2-c2ccc(C#N)cc2)nc(C(N)=O)c(=O)n1-c1cccc(C(F)(F)F)c1` [Example 1a, 6-[1-(4-Cyanophenyl)-1H-pyrazol-5-yl]-5-methyl-3-oxo-4-[3-(trifluoromethyl)phenyl]-3,4-dihydropyrazine-2-carboxamide Form A], the “thermally stable below (no solvent loss nor other thermal event prior to melting)” value in data set [1] is “below 260 °C”. For the same molecule, the “water uptake (hygroscopicity)” value in data set [2] was under 0.2 wt %.
`Cc1c(-c2ccnn2-c2ccc(C#N)cc2)nc(C(=O)NC2CC2)c(=O)n1-c1cccc(C#N)c1` [Example 5, 4-(3-Cyanophenyl)-6-[1-(4-cyanophenyl)-1H-pyrazol-5-yl]-N-cyclopropyl-5-methyl-3-oxo-3,4-dihydropyrazine-2-carboxamide]: the IC50 in data set [3] was determined as 4.2 nM.
Still for that read-out and setting: then `Cc1c(C2=NC(C)(C)CN2c2ccc(C#N)cc2)nc(C(N)=O)c(=O)n1-c1cccc(C(F)(F)F)c1` [Example 6, 6-(1-(4-Cyanophenyl)-4,4-dimethyl-4,5-dihydro-1H-imidazol-2-yl)-5-methyl-3-oxo-4-(3-(trifluoromethyl)phenyl)-3,4-dihydropyrazine-2-carb oxamide], with 1.4 nM; and `Cc1cc(-c2nc(C(N)=O)c(=O)n(-c3cccc(C(F)(F)F)c3)c2C)n(-c2ccc(C#N)cc2)n1` [Example 4, 6-[1-(4-Cyanophenyl)-3-methyl-1H-pyrazol-5-yl]-5-methyl-3-oxo-4-[3-(trifluoromethyl)phenyl]-3,4-dihydropyrazine-2-carboxamide], with 3.5 nM.
The same measure, in the same setting: then `Cc1c(-c2ccnn2-c2ccc(Cl)cn2)nc(C(N)=O)c(=O)n1-c1cccc(C(F)(F)F)c1` [Example 3, 6-[1-(5-Chloropyridin-2-yl)-1H-pyrazol-5-yl]-5-methyl-3-oxo-4-[3-(trifluoromethyl)phenyl]-3,4-dihydropyrazine-2-carboxamide], with 28 nM.
Still for that read-out and setting: then `Cc1c(-c2ccnn2-c2ccc(Cl)cc2)nc(C(N)=O)c(=O)n1-c1cccc(C(F)(F)F)c1` [Example 2, 6-[1-(4-Chlorophenyl)-1H-pyrazol-5-yl]-5-methyl-3-oxo-4-[3-(trifluoromethyl)phenyl]-3,4-dihydropyrazine-2-carboxamide], with 11 nM; and `Cc1c(-c2ccnn2-c2ccc(C#N)cc2)nc(C(N)=O)c(=O)n1-c1cccc(C(F)(F)F)c1` [Example 1 or 1a, 6-[1-(4-Cyanophenyl)-1H-pyrazol-5-yl]-5-methyl-3-oxo-4-[3-(trifluoromethyl)phenyl]-3,4-dihydropyrazine-2-carboxamide], with 2.2 nM.
